Measured values reported in publication PMC10245146, “CNS4 causes subtype‐specific changes in agonist efficacy and reversal potential of permeant cations in NMDA receptors” (Pharmacology Research & Perspectives, 2023).
Values joined by “and” are separate entries in the source; they are usually repeats but may differ in a detail not shown here. Equal values may be shown once.

Columns and labels:
Assay type in all cases: cell-based
GluN1/2D NMDA receptors [1] = molecular target: T1, GluN1/2D NMDA receptors (UniProt O15399+P35439); test: TEVC agonist dose-response, Xenopus oocytes expressing 1/2D
T1 construct: host or cells: Xenopus oocytes (cRNA injection)
Text: (§1) NMDA receptor constructs: cDNA encoding the NMDA receptor1a subunit (GluN1a) was obtained from Dr. Nakanishi (Kyoto, Japan). cDNA encoding the GluN2B (pci_sepGluN2B), originally developed in the Malinow lab,[33] was purchased from Addgene (cat# 23998), Cambridge, MA. cDNA encoding the GluN2C and GluN2D were purchased from GenScript, New Jersey, USA. Mutated GluN1, 2A and 2B cDNA constructs capable of assembling as GluN1/2A/2B triheteromeric (1/2AB) receptors[34] were obtained from Dr. Paoletti (Laboratoire de Neurobiologie, CNRS). These constructs have been previously tested for 1/2AB receptor activity of GluN1/2A receptor‐selective potentiators.[35] […] Plasmids were linearized with NotI (GluN1a and all five GluN1 mutants) or Avrll (GluN2B), or BstB1 (GluN2C and GluN2D) and transcribed in vitro with T7 (GluN1a, GluN1/2A, GluN2B, GluN2C & GluN2D), and SP6 (GluN1 mutants) RNA polymerase using the mMessage mMachine transcription kits (Invitrogen by Thermo Fisher Scientific).
(§2) Stage IV frog oocytes were obtained from Xenopus‐I, (Ann Arbor, MI, USA). NMDA receptor subunit cRNAs were suspended in nuclease free sterile water. GluN1A, GluN2B, GluN2C, GluN2D and GluN1/2A/2B cRNAs were mixed in a ratio of 1:1–3. 50 nL of the final cRNA mixture was microinjected (40–70 ng total) into the oocyte cytoplasm. Oocytes were incubated in ND‐96 solution at 18°C prior to electrophysiological recordings (2–5 days).
(§3) Electrophysiological responses were measured using a standard two‐microelectrode voltage‐clamp workstation (Warner Instruments model OC‐725C) designed to provide a fast clamp of large cells. The recording buffer contained 116 mM NaCl, 2 mM KCl, 0.3 mM BaCl2, and 5 mM HEPES, pH 7.4. Response magnitude was determined in Xenopus oocytes expressing different NMDA receptor subunits (GluN1/2A, 1/2B, 1/2C, 1/2D, and 1/2A/2B) by the steady plateau response elicited by bath application of different agonist concentrations. […] All data points were obtained from the steady state currents unless stated otherwise. Dose–response relationships were fit to an appropriate curve‐fitting equation using GraphPad Prism‐7. Non‐linear regression was used to calculate EC50, IC50, and fold change or percentage maximal response. Curves were fit using the following equations as performed in the previous studies, [37]: Y=100/1+10^LogEC50−XorY=Bottom+Top−Bottom/1+10^LogEC50−X . Statistical significance was determined at the overall alpha level 0.05, using appropriate statistical methods as described in all figure captions. Technical and biological replicates are explicitly mentioned in each figure legend, as n = X (Y). X represents technical repeats (number of traces) and Y represents biological repeats (number of oocytes or HEK293T cells studied). […]

GluN1/2D NMDA receptors [2] = molecular target: T1, GluN1/2D NMDA receptors; test: Current-voltage (I-V) relationship, Xenopus oocytes expressing 1/2D; conditions: for Difference in reversal potential (∆Erev) between W and WO CNS4: 100 μM CNS4; for Reversal potential (Erev): with 100 μM CNS4
Procedure: There are two sets of recording solutions used for the I‐V assay: solutions with normal (1) and low (2) Ca^2+ concentrations. The normal Ca^2+ solutions contained (mM): 115 NaCl, 1 KCl, 1.8 CaCl2, 10 HEPES. PH was adjusted to 7.2. Low calcium solutions contained 0.018 mM CaCl2 and other components were the same as normal Ca^2+ solution. To study the effects of CNS4 in the absence of extracellular Na^+, NaCl was replaced with impermeable agent, N‐methyl‐D‐glucamine (NMDG, […]). HCl was used to dissolve the NMDG and to adjust the PH to 7.2. NMDG‐containing solutions are termed Nafree. […] There were four different agonist solutions used for each set of Ca^2+ recordings: (1) Agonist, (2) Agonist+CNS4, (3) Agonist in Nafree solution, (4) Agonist+CNS4 in Nafree solution. Each solution was applied to the oocytes in sequential order and the same order was followed for all I‐V recordings. Low Ca^2+ experiments were carried out in the same way as normal Ca^2+ experiments, except that they had 0.018 mM Ca^2+ in all four agonist and recording solutions. Steady state current responses evoked by these solutions at each voltage step were measured. Reversal potentials (Erev) were obtained from x‐intercept values when y = 0 after fitting the I‐V data using a third order polynomial, non‐linear curve fitting equation Y=B0+B1^*X+B2^*X^2+B3^*X^3 . Erev obtained from each oocyte with different agonists were compared in a pairwise manner. These differences were then averaged. Paired or unpaired student t‐test was performed to compare the data as mentioned in each figure legend.
FIGURE 6 Effect on CNS4 on agonist induced current directions in 1/2D receptors. Current –Voltage (I‐V) relationship of 1/2D receptors was studied with normal (A) and low (B) CaCl2 containing extracellular solutions. […] Dark and light green circles indicate normal and low CaCl2 experiments, respectively. (C) Comparison of reversal potentials values. Dark and light red squares indicate equivalent I‐V experiments with NMDG (Nafree). Dotted and thick lines denote the absence (empty circles or squares) and presence (filled circles or squares) of 100 μM CNS4, respectively. Traces (Ai&ii, Bi&ii) represent the current response at −90 mv. N = 4 (4) & n = 7(7) for normal & low Ca^2+ assays respectively. Erev obtained from each oocyte with different agonists were compared in a pairwise manner. Paired student t‐test was performed to compare the data presented at Ci. Unpaired student's t‐test was performed to compare the difference in reversal potentials (triangles). *p < .05.

[3] = tested on: GluN1/2A/2B triheteromeric (1/2AB) NMDA receptors; test: TEVC agonist dose-response, Xenopus oocytes expressing 1/2AB
Text: as §1, §2, §3

GluN1/2A NMDA receptors = molecular target: T2, GluN1/2A NMDA receptors (UniProt P35439+Q12879); test: TEVC agonist dose-response, Xenopus oocytes expressing 1/2A
T2 construct: expressed in transfected cells; host or cells: Xenopus oocytes (cRNA injection)
Text: as §1, §2, §3

T1 sequence (O15399 28-1336, other chains not shown): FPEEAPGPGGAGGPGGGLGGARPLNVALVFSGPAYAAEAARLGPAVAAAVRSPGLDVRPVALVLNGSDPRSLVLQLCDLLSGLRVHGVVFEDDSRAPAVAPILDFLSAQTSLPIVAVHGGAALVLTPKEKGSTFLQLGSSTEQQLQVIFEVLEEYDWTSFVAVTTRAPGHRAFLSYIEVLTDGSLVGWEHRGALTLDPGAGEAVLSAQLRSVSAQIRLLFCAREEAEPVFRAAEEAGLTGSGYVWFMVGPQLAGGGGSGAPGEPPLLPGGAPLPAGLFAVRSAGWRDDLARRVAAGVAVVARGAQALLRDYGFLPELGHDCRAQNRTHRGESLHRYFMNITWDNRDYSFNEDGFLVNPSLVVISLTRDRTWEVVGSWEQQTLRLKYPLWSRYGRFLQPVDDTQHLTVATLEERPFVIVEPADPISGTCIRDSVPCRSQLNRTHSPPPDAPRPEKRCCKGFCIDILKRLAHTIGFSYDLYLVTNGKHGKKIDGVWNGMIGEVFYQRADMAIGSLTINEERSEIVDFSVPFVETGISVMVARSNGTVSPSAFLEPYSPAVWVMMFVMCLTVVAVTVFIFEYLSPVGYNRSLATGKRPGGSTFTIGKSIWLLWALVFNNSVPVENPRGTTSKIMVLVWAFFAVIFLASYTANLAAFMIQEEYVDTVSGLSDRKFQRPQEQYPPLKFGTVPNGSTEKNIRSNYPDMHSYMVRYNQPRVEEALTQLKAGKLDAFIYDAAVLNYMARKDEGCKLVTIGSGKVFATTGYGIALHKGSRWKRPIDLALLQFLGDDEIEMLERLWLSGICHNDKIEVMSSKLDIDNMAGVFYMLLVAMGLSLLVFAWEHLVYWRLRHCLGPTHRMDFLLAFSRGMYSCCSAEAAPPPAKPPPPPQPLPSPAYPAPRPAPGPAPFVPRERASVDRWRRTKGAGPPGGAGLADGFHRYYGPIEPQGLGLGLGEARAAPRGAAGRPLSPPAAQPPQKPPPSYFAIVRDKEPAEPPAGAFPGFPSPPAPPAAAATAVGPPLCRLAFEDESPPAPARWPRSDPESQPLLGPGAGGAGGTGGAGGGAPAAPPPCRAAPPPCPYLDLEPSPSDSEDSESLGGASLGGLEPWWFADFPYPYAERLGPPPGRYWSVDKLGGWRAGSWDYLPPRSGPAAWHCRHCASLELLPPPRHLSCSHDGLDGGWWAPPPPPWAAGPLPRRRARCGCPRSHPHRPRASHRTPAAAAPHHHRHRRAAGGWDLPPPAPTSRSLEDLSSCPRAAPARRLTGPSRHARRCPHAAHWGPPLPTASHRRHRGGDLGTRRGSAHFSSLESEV
T2 sequence (Q12879 23-1464, other chains not shown): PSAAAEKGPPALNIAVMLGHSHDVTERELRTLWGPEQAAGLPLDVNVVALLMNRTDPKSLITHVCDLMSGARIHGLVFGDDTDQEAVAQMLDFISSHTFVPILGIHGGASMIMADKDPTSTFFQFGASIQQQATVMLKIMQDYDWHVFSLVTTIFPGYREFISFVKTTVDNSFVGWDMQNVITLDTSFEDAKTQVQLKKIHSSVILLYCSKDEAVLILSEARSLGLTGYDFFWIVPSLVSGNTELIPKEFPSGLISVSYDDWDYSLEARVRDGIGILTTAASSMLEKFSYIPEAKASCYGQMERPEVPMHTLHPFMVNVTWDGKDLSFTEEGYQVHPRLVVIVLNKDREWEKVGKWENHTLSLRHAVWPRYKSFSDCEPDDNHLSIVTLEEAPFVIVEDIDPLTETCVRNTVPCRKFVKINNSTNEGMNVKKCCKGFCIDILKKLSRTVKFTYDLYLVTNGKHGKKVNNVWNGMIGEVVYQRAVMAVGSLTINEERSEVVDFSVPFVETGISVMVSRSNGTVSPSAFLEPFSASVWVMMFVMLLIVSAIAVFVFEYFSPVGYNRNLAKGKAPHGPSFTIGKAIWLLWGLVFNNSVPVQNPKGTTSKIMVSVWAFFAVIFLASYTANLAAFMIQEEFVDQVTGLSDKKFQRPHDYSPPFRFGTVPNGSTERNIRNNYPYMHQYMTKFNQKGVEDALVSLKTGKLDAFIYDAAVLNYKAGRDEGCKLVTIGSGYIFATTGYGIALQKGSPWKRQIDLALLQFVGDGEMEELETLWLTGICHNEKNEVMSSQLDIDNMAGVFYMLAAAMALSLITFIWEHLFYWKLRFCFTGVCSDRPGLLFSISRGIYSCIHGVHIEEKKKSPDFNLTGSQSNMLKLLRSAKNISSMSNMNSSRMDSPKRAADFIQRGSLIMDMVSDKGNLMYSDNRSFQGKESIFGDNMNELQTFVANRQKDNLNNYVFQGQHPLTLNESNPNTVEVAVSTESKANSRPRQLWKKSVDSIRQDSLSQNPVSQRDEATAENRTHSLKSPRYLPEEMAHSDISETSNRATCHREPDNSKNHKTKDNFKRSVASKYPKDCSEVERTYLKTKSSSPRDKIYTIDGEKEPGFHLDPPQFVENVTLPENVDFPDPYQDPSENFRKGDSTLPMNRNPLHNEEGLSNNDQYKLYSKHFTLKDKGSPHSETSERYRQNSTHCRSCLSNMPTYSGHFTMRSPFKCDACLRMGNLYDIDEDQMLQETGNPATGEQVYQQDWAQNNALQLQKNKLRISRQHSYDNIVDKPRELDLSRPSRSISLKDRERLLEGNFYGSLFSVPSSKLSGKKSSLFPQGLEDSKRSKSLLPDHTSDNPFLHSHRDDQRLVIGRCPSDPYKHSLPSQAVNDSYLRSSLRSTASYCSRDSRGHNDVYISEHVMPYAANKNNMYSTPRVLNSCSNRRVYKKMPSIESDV

O=C(NC(=S)N1CCCCC1c1cccnc1)c1ccc(F)cc1 (stereo not drawn) [CNS4]
Effect on glutamate efficacy with vs without CNS4 (insignificant) (GluN1/2D NMDA receptors [1]; 30 μM CNS4): 0.8 fold | Increase in glycine efficacy with vs without CNS4 (GluN1/2D NMDA receptors [1]; 30 μM CNS4, 10 μM glycine): 1.89 fold and 1.9 fold | Glycine efficacy: relative fold change in current at highest glycine concentration (GluN1/2D NMDA receptors [1]; with 30 μM CNS4, 10 μM glycine, 100 μM glutamate constant, relative to 100 nM glycine, p = .0014): 2.04 ± 0.19 fold | Glutamate efficacy: relative fold change in current at highest glutamate concentration (GluN1/2D NMDA receptors [1]; with 30 μM CNS4, 100 μM glycine constant, relative to 100 nM glutamate, p = .1735): 6.90 ± 0.62 fold | Difference in reversal potential (∆Erev) between W and WO CNS4 (GluN1/2D NMDA receptors [2]; low Ca2+, Nafree, n = 6): −6.22 ± 4.08 mV | Difference in reversal potential (∆Erev) between W and WO CNS4 (GluN1/2D NMDA receptors [2]; low Ca2+, with Na+, n = 7): −26.55 ± 7.66 mV | Difference in reversal potential (∆Erev) between W and WO CNS4 (GluN1/2D NMDA receptors [2]; normal Ca2+, Nafree, n = 4): −2.21 ± 2.14 mV | Difference in reversal potential (∆Erev) between W and WO CNS4 (GluN1/2D NMDA receptors [2]; normal Ca2+, with Na+, n = 4): −0.22 ± 2.08 mV | Reversal potential (Erev) (GluN1/2D NMDA receptors [2]; low Ca2+, with Na+, without CNS4 ‐44.02 ± 6.04, p = .013): −70.57 ± 6.44 mV | Reversal potential (Erev) (GluN1/2D NMDA receptors [2]; normal Ca2+, Nafree, without CNS4 −77.99 ± 1.77, p = .378): −80.20 ± 2.54 mV | Reversal potential (Erev) (GluN1/2D NMDA receptors [2]; normal Ca2+, with Na+, without CNS4 −61.43 ± 5.26, p = .919): −61.66 ± 5.55 mV | Reduction in glutamate efficacy with vs without CNS4 ([3]; 30 μM CNS4): 5.3 fold | Glycine efficacy: relative fold change in current at highest glycine concentration ([3]; with 30 μM CNS4, 100 μM glutamate constant, relative to 1 μM glycine, p = .0019): 1.37 ± 0.08 fold | Glutamate efficacy: relative fold change in current at highest glutamate concentration ([3]; with 30 μM CNS4, 100 μM glycine constant, relative to 1 μM glutamate, p = .0001): 2.79 ± 0.43 fold | 100 μM glutamate induced relative current amplitude (glutamate efficacy) (GluN1/2A NMDA receptors; absence of glycine, presence of CNS4, n = 6(3)): 0.04 ± 0.02 fold | Glutamate efficacy (GluN1/2A NMDA receptors; in the presence of 30 μM glycine and 30 μM CNS4, n = 9 (3)): 297.8 ± 71.06 fold | Glycine efficacy: relative fold change in current at highest glycine concentration (GluN1/2A NMDA receptors; with 30 μM CNS4, 100 μM glutamate constant, relative to 1 μM glycine, average ± SEM, p = .19): 2.59 ± 0.36 fold | Glutamate efficacy: relative fold change in current at highest glutamate concentration (GluN1/2A NMDA receptors; with 30 μM CNS4, 100 μM glycine constant, relative to 1 μM glutamate, p = .2898): 2.95 ± 0.45 fold
